Results taken from ChEMBL document CHEMBL1201862, “PubChem BioAssay data set” (2004).
Counter-ions that a name gives are not always drawn. Activity calls are given as the source filed them.

How the values were obtained:
[1] = biological target: Photoreceptor-specific nuclear receptor (Homo sapiens, UniProt Q9Y5X4); type: functional, cell-based;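 further: CHO-S cells with Gal4-NCOR and VP16-NR2E3 two-hybrid luciferase reporter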
[2] = biological target: SWI/SNF-related matrix-associated actin-dependent regulator of chromatin subfamily A member 2 (Homo sapiens, UniProt P51531); experiment: Luminescence-based cell-based high throughput dose response assay to identify activators of the function of SWI/SNF related, matrix associated, actin dependent regulator of chromatin, subfamily a, member 2 (SMARCA2, BRM).; type: functional
[3] = Counterscreen for activators of the function of SWI/SNF related, matrix associated, actin dependent regulator of chromatin, subfamily a, member 2 (SMARCA2, BRM): Luminescence-based cell-based high throughput dose response assay to identify non-selective compounds using the VP16 reporter assay.; type: functional
[4] = biological target: Induced myeloid leukemia cell differentiation protein Mcl-1 (Homo sapiens, UniProt Q07820); experiment: blockers of MCL1 binding to BIM peptide – biochemical, fluorescence polarization, BIM-BH3 peptide, 1536-well, dose response (AID 2217)
[5] = biological target: Bcl-2-like protein 1 (Homo sapiens, UniProt Q07817); experiment: blockers of BCLXL peptide binding – biochemical, fluorescence polarization, 1536-well, selectivity assay for MCL1 inhibitor project, dose response (AID 2218)
[6] = test system: H9c2; experiment: cells; type: functional, cell-based; settings: Rattus norvegicus, H9c2, Myocardium;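 further: confirmatory concentration-response retest of ultra-high-throughput screening hits for modulation of myocardial damage; cell death induced by hydrogen peroxide oxidative stress; compound pretreatment for 60 min then peroxide exposure for 2 h; potency is for protecting the cells against peroxide damage rather than for killing them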
[7] = blockers of HIV-1 envelope-mediated cell-cell fusion – cherry-pick, dose response (AID 652057); type: functional, cell-based
[8] = viability loss in CEM21 cells – cell-based, CellTiter-Glo luminescence, cherry-picked, cytotoxicity control for viral fusion inhibitor project, dose response (AID 652042); type: functional;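 further: potency for signal decrease meaning cytotoxicity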
[9] = off-target signal loss in HeLa-CEM21 co-culture – HeLa F-luc CTL cells, cherry-picked, counter-screen for HIV-1 Env fusion inhibitor project, dose response (AID 652040); type: functional, cell-based;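 further: potency for signal decrease marking cytotoxic or nonspecific inhibition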
[10] = CellTiter-Glo luminescence survival assay, SW480 colon tumor line, concentration-response curve, half-maximal inhibitory concentration (AID 1117338); type: functional
[11] = RKO cell viability reduction, dose response, CellTiter-Glo luminescence (AID 1117322); type: functional
[12] = cytotoxicity toward HCT116 cells – cell-based, CellTiter-Glo luminescence, IC50, dose response (AID 1117332); type: functional; settings: HCT-116
[13] = SNU-C1 cell viability reduction, dose response, CellTiter-Glo luminescence (AID 1117323); type: functional, cell-based
[14] = cytotoxicity toward Colo320 cells – cell-based, CellTiter-Glo luminescence, IC50, dose response (AID 1117334); type: functional; settings: COLO 320
[15] = cytotoxicity toward HT-29 cells – cell-based, CellTiter-Glo luminescence, IC50, dose response (AID 1117330); type: functional
[16] = Reduced DLD-1 viability, concentration-response, CellTiter-Glo luminescence (AID 1117352); type: functional
[17] = biological target: T1, Heat shock factor protein 1 (Mus musculus, UniProt P38532); experiment: decrease of HSF1-responsive luciferase luminescence – cell-based, NIH3T3, dose retest, confirmation (AID 2382); type: functional;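 further: NIH3T3 fibroblasts with HSF1-driven luciferase reporter stressed by proteasome inhibitor MG132; luminescence from HSF1-driven luciferase expression after 8 hours of MG132 stress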
T1 sequence (P38532 whole entry): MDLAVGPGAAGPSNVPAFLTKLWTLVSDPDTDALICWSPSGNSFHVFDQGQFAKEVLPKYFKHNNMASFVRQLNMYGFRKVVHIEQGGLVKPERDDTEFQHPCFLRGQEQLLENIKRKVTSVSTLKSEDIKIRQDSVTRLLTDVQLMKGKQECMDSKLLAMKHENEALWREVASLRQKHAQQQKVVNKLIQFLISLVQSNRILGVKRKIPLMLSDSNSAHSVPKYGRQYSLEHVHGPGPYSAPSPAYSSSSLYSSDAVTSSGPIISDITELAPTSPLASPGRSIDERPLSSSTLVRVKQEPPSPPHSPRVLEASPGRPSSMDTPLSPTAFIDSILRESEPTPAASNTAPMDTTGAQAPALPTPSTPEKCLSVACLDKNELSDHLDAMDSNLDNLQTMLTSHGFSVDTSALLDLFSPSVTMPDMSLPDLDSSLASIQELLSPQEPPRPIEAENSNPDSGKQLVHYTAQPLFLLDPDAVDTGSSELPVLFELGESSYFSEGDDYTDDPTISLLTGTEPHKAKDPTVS

[18] = biological target: T2, COUP transcription factor 2 (Homo sapiens, UniProt P24468); experiment: Luminescence-based cell-based high throughput dose response assay to identify inhibitors of COUP-TFII (NR2F2).; type: functional;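 further: HEK293 cells transiently cotransfected with COUP-TFII expression vector and reporter; luciferase reporter luminescence driven by COUP-TFII from the pX2-168 reporter plasmid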
T2 sequence (P24468 whole entry): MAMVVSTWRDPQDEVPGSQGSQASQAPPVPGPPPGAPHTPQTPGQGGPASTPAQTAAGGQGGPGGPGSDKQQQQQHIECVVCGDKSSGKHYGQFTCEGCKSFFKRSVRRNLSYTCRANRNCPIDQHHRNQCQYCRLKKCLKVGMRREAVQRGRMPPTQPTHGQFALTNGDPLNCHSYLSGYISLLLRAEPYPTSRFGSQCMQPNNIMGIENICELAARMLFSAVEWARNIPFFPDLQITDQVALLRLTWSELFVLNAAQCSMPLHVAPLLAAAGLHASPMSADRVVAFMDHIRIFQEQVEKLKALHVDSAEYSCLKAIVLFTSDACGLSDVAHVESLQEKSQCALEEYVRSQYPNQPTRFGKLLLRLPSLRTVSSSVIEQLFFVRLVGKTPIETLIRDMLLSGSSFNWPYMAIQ

[19] = blockers of bursicon-stimulated LGR2 cAMP reporter – cell-based, HEK293, CRE-luciferase reporter, cherry pick, set 2, dose response (AID 743343); type: functional;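 further: transfected cells were stimulated with diluted bursicon conditioned medium after compound addition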
[20] = blockade of melanocortin 4 receptor signaling – cell-based, plate reader, cherry pick, counter-screen for LGR2 antagonist project, dose response (AID 743444); type: functional;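 further: transfected HEK 293 cells stimulated with alpha-MSH peptide; potency of inhibitors of the alpha-MSH evoked signal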
[21] = viability loss in HEK293 cells – cell-based, plate reader, cherry-picked samples, cytotoxicity control, dose response (AID 743446); type: functional
[22] = test system: Vero; experiment: viability loss in Vero cells – cell-based, plate reader, cherry-pick samples, cytotoxicity control, dose response (AID 687020); type: functional; settings: Chlorocebus sabaeus
[23] = biological target: Major prion protein (Homo sapiens, UniProt P04156); type: functional, cell-based
[24] = cells
[25] = NIH-3T3 fibroblast cytotoxicity, dose response, cytotoxicity control, cell-based, fluorescence, Alamar Blue, secondary assay (AID 2327); type: functional;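 further: NIH-3T3 mouse fibroblasts cultured with fluconazole at 8 µg/mL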
[26] = fluconazole-exposed Candida albicans growth modulators – fluorescence, retest, confirmation (AID 2467); type: functional, cell-based
[27] = test system: INS1; experiment: INS-1E survival protection against cytokine death – cell-based, luminescence, retest, dose response (AID 449756); type: functional; settings: Rattus norvegicus;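 further: cell death triggered by IL-1 beta plus TNF-alpha plus IFN-gamma mixture; protective hits raise ATP signal compared with cytokine alone wells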
[28] = Trypanosoma cruzi growth suppression in host cells – NIH3T3 host cells, beta-gal luminescence, confirmation (AID 2044); type: functional, cell-based;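 further: intracellular parasites grown in NIH/3T3 mouse fibroblasts as host cells; luminescent beta-galactosidase reporter signal from transgenic T. cruzi replicating inside host cells; inhibitors lower the luminescence signal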
[29] = NIH3T3 cell viability loss – ATP luminescence, mouse fibroblasts, counter-screen, dose response (AID 2010); type: functional, cell-based;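 further: cells exposed to compound for about 90 hours before reading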
[30] = cells; remark: listed apart in the source
[31] = A549 cell cytotoxicity, dose response, cytotoxicity control, plate reader, cherry-pick, antagonist series (AID 743412); type: functional, cell-based
[32] = toxicity toward HepG2 liver cells – cell-based, plate reader, cherry-pick, antagonist series, cytotoxicity control, dose response (AID 743416); type: functional
[33] = test system: Streptococcus sp. 'group A'; experiment: Streptococcus pyogenes SK(-)GAS viability under kanamycin – luminescence, BacTiterGlo, confirmation, counter-screen for streptokinase expression inhibitor project, dose response (AID 1900); type: functional, organism-based
[34] = test system: Streptococcus; experiment: GAS UMAA2166 growth inhibition – luminescence, BacTiterGlo, counter-screen for streptokinase expression inhibitor project, dose response (AID 1915); type: functional, organism-based;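 further: potency for reduction of bacterial viability or growth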
[35] = blockers of HIV-1 ZM109 envelope-driven cell-cell fusion – HeLa effector, CEM target cells, luciferase, cherry-pick, dose response (AID 652058); type: functional, cell-based;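 further: luciferase signal from HIV-1 Env mediated cell-cell fusion of effector and target cells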
[36] = HIV-1 AD8 envelope cell-cell fusion blockers – cherry-pick, dose response (AID 652062); type: functional, cell-based;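 further: luciferase signal from cell-cell fusion driven by HIV-1 clade B AD8 Env; potency is for inhibitors of fusion seen as a drop in luminescence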

SMILES: COc1ccc2c(CC(=O)Nc3ncc(C)s3)coc2c1
- IC50 [1]: 1.11 µM (active)
- EC50 [2]: > 91.2 µM (inactive)
- EC50 [3]: > 91.2 µM (inactive)

SMILES: CNc1ccccc(C(=O)/C=C/c2ccccc2OC)c1=O
- IC50 [4]: > 109 µM (not active)
- IC50 [5]: > 109 µM (not active)
- IC50 [6]: 11.5 µM (active)

SMILES: Cc1cccc(C)c1N(CC(O)Cn1c2ccccc2c2ccccc21)S(C)(=O)=O (stereo not drawn)
- AC50 [7]: 17.1 µM (active)
- AC50 [8]: 60.4 µM (active)
- AC50 [9]: > 70 µM (inactive)

SMILES: CCN(CCO)CCCC(C)Nc1ccnc2cc(Cl)ccc12 (stereo not drawn) [HYDROXYCHLOROQUINE SULFATE]
- IC50 [10]: > 20 µM (inactive)
- IC50 [11]: > 20 µM (inactive)
- IC50 [12]: > 20 µM (inactive)
- IC50 [13]: > 20 µM (inactive)
- IC50 [14]: > 20 µM (inactive)
- IC50 [15]: > 20 µM (inactive)
- IC50 [16]: > 20 µM (inactive)

SMILES: COCCn1c(C)c(C)c2c(NCCc3ccccc3)ncnc21
- EC50 [17]: < 0.16 µM (active)
- IC50 [18]: 40.1 µM (inactive)
- AC50 [19]: 6.87 µM (active)
- AC50 [20]: 9.75 µM (active)
- AC50 [21]: > 52 µM (inactive)

SMILES: NC(=O)c1cc(Cl)cn(-c2ccccc2)c1=O
- AC50 [22]: 33.7 µM (active)

SMILES: N=C(NOC(=O)COc1ccc2ccccc2c1Br)c1ccccn1
- IC50 [23]: 4.71 µM (active)
- IC50 [24]: > 138 µM (inactive)

SMILES: O=C(Oc1c(CN2CCOCC2)cc(Cl)c2cccnc12)c1ccccc1Br
- EC50 [25]: 135 µM (active)
- EC50 [17]: 31.3 µM (active)
- EC50 [26]: 3.49 µM (active)
- AC50 [27]: 6.56 µM (active)
- EC50 [2]: > 91.1 µM (inactive)
- EC50 [3]: > 91.1 µM (inactive)

SMILES: COc1ccc(CN2CCCC(CO)(Cc3cccc(Cl)c3)C2)cc1OC (stereo not drawn)
- EC50 [28]: < 0.1 µM (active)
- EC50 [29]: > 30 µM (not active)
- EC50 [30]: 0.352 µM (active)

SMILES: O=C1c2ccccc2S(=O)(=O)c2cc(N3CCN(C(=O)c4ccccc4)CC3)ccc21
- AC50 [31]: 23.5 µM (active)
- AC50 [32]: > 52 µM (inactive)
- AC50 [19]: 20.8 µM (active)
- AC50 [20]: 22.3 µM (active)
- AC50 [21]: > 52 µM (inactive)

SMILES: CC(=O)c1sccc1NC(=O)c1ccccc1C(=O)O
- IC50 [23]: 3.09 µM (active)
- IC50 [24]: > 138 µM (inactive)

SMILES: CC1CCCCN1S(=O)(=O)c1ccc(C(=O)Nc2nnc(-c3cccs3)o2)cc1 (stereo not drawn)
- EC50 [25]: > 150 µM (inactive)
- EC50 [33]: 2.05 µM (active)
- EC50 [26]: 1.11 µM (active)
- EC50 [34]: 4.49 µM (active)
- AC50 [7]: 32.8 µM (active)
- AC50 [8]: 35.7 µM (active)
- AC50 [35]: 14.6 µM (active)
- AC50 [36]: 16.6 µM (active)
